Legend:
Experiment in all cases: kinobeads assay with mass spectrometry detection of kinases (kinase selectivity profile)
Format in all cases: binding
kinases (kinome) [1] = biological target: T1, kinases (kinome) (Homo sapiens, UniProt P52333); settings: JAK3 (TK), IPI00219418
T1 construct: determined in kinobeads assays with mass spectrometry detection of kinases as described previously; endogenous in cells; host or cells: cell lysate
T1 sequence (P52333 1-1124): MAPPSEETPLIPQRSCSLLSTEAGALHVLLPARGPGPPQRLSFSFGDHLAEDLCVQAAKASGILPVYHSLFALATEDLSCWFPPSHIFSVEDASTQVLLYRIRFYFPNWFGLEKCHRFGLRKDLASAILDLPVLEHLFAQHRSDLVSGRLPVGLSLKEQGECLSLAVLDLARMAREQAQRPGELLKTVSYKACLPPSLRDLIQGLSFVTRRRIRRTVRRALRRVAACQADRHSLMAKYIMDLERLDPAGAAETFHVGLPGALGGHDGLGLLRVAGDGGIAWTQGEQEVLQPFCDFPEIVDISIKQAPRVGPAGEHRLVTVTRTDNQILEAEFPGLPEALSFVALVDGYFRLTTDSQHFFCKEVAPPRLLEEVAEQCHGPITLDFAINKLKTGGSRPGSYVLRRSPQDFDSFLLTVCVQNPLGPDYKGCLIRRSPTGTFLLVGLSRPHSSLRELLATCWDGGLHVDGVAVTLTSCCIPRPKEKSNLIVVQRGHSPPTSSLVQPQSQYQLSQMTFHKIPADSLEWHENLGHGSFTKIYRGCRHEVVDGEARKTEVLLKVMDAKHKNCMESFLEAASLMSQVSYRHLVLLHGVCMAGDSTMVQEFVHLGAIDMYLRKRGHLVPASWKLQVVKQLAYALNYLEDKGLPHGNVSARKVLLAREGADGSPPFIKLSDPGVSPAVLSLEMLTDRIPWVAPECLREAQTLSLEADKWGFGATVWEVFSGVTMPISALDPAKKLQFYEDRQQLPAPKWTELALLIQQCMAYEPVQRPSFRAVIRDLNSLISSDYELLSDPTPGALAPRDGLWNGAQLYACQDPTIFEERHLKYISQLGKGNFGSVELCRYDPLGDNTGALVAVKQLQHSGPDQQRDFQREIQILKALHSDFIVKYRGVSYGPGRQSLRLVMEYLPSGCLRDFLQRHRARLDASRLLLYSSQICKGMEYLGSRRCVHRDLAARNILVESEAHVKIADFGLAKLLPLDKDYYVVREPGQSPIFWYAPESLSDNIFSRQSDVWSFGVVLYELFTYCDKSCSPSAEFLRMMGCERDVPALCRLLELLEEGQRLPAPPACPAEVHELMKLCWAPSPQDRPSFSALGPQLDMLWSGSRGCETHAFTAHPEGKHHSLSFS
Source text: (§1) The protein kinase complement of the human genome (the kinome) was described previously (Manning et al., 2002. Science 298(5600):1912-1934). Sequence accession numbers are defined by the International Protein Index (IPI) (Kersey et al., 2004. Proteomics 4(7):1985-1988).

kinases (kinome) [2] = biological target: T2, kinases (kinome) (Homo sapiens, UniProt P49760); settings: CLK2 (CMGC), IPI00028071
T2 construct: determined in kinobeads assays with mass spectrometry detection of kinases as described previously; endogenous in cells; host or cells: cell lysate
T2 sequence (P49760 whole entry): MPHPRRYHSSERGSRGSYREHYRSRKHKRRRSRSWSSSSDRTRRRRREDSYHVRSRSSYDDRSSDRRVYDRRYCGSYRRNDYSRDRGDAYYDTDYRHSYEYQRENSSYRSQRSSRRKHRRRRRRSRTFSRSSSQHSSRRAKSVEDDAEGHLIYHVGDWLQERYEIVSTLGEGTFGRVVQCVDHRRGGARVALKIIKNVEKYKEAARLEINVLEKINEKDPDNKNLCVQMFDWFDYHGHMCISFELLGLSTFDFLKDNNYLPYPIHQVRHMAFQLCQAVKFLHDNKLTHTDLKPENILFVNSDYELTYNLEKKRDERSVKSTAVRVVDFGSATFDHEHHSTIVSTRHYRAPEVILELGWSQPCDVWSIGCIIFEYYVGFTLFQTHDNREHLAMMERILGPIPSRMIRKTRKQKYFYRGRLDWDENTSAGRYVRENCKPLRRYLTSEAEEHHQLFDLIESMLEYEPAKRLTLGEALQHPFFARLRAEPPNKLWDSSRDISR
Source text: as §1

kinases (kinome) [3] = biological target: T3, kinases (kinome) (Homo sapiens, UniProt P29320); settings: EphA3 (TK), IPI00298105
T3 construct: determined in kinobeads assays with mass spectrometry detection of kinases as described previously; endogenous in cells; host or cells: cell lysate
T3 sequence (P29320 21-983): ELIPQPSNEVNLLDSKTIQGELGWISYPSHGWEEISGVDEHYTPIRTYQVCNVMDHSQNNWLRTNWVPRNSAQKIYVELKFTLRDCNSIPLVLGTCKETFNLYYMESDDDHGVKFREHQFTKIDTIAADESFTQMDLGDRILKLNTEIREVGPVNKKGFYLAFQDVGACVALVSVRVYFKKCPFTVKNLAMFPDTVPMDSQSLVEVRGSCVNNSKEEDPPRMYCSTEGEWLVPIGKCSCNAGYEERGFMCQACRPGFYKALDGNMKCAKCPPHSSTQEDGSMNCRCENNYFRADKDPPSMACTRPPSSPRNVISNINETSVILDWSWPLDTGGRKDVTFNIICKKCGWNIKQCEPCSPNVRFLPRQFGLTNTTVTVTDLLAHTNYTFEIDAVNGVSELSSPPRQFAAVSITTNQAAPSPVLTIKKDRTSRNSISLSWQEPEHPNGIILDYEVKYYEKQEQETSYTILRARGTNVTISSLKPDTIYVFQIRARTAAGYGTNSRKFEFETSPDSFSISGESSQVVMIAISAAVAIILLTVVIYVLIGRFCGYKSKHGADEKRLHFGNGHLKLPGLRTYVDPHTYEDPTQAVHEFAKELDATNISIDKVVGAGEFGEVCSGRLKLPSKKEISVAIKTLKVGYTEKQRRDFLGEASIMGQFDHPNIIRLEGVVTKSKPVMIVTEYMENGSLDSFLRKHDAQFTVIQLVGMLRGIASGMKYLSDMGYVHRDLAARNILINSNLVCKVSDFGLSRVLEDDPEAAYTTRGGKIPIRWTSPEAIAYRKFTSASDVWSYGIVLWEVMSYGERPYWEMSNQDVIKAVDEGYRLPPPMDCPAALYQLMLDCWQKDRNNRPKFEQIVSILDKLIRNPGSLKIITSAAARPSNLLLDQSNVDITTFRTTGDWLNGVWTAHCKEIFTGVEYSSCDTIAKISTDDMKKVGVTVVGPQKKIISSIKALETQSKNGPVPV
Source text: as §1

kinases (kinome) [4] = biological target: T4, kinases (kinome) (Homo sapiens, UniProt O94768); settings: DRAK2 (CAMK), IPI00916930
T4 construct: determined in kinobeads assays with mass spectrometry detection of kinases as described previously; endogenous in cells; host or cells: cell lysate
T4 sequence (O94768 1-372): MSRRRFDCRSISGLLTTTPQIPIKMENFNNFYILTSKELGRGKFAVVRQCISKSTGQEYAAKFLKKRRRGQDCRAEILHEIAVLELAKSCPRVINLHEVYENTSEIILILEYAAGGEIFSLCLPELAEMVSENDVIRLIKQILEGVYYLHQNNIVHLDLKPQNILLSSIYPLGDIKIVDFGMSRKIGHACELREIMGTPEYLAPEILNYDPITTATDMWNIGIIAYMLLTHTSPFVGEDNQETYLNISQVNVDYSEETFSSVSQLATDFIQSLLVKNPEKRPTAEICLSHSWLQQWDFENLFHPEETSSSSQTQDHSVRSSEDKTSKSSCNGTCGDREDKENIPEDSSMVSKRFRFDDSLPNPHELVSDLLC
Source text: as §1

| IC50 (kinases (kinome) [1]) [µM] | IC50 (kinases (kinome) [2]) [µM] | IC50 (kinases (kinome) [3]) [µM] | IC50 (kinases (kinome) [4]) [µM] | SMILES |
| --- | --- | --- | --- | --- |
| > 10 |  |  |  | C[C@H]1COCCN1c1cc(-c2ccccc2S(C)(=O)=O)nc(-c2ccc(NC(=O)NC3CC3)cc2)n1 [Example 6, (S)-1-cyclopropyl-3-(4-(4-(3-methylmorpholino)-6-(2-(methylsulfonyl)phenyl)pyrimidin-2-yl)phenyl)urea] |
|  | > 10 | > 10 |  | CCNC(=O)Nc1ccc(-c2cc(-c3ccccc3C#N)nc(N3CCOC[C@@H]3C)n2)cc1 [Example 8, (S)-1-(4-(6-(2-cyanophenyl)-2-(3-methylmorpholino)pyrimidin-4-yl)phenyl)-3-ethylurea] |
|  |  | > 10 | > 10 | C[C@H]1COCCN1c1nc(-c2ccc(NC(=O)NC3CC3)cc2)cc(-c2ccccc2S(C)(=O)=O)n1 [Example 4, (S)-1-cyclopropyl-3-(4-(2-(3-methylmorpholino)-6-(2-(methylsulfonyl)phenyl)pyrimidin-4-yl)phenyl)urea] |
| > 10 | > 10 | > 10 | > 10 | C[C@H]1COCCN1c1nc(-c2ccc(NC(=O)NC3CC3)cc2)cc(-c2cccnc2S(C)(=O)=O)n1 [Example 46, (S)-1-cyclopropyl-3-(4-(2-(3-methylmorpholino)-6-(2-(methylsulfonyl)pyridin-3-yl)pyrimidin-4-yl)phenyl)urea] |
| > 10 |  |  |  | C[C@H]1COCCN1c1nc(-c2ccc(NC(=O)N[C@H]3CCC[C@@H]3O)cc2)cc(-c2cc(F)ccc2S(C)(=O)=O)n1 [Example 76, 1-(4-(6-(5-fluoro-2-(methylsulfonyl)phenyl)-2-((S)-3-methylmorpholino)pyrimidin-4-yl)phenyl)-3-((1S,2S)-2-hydroxycyclopentyl)urea] |
| > 10 | > 10 | > 10 |  | C[C@H]1COCCN1c1cc(-c2ccccn2)nc(-c2ccc(NC(=O)NCCO)cc2)n1 [Example 43, (S)-1-(2-hydroxyethyl)-3-(4-(4-(3-methylmorpholino)-6-(pyridin-2-yl)pyrimidin-2-yl)phenyl)urea] |
| > 10 |  | > 10 | > 10 | C[C@H]1COCCN1c1nc(-c2ccc(NC(=O)NC3CC3)cc2)cc(-c2cc(F)ccc2S(C)(=O)=O)n1 [Example 40, (S)-1-cyclopropyl-3-(4-(6-(5-fluoro-2-(methylsulfonyl)phenyl)-2-(3-methylmorpholino)pyrimidin-4-yl)phenyl)urea] |
